Measured values taken from PubChem BioAssay (NCI).
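These data come from cells grown in 96-well plates and exposed to compound for 48 hours at five concentrations. The concentration for full growth arrest is given as TGI.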

What was measured:
Test in all cases: NCI tumour cell line growth inhibition, 48 h
KM20L2 colon = tested on: KM20L2 colon
P388 leukemia = tested on: P388 leukemia
P388/ADR leukemia = tested on: P388/ADR leukemia
HOP-18 NSCLC = tested on: HOP-18 NSCLC
DLD-1 colon = tested on: DLD-1 colon
SN12K1 renal = tested on: SN12K1 renal
LXFL 529 NSCLC = tested on: LXFL 529 NSCLC
XF 498 CNS = tested on: XF 498 CNS

| Structure (SMILES) | TGI (KM20L2 colon) | TGI (P388 leukemia) | TGI (P388/ADR leukemia) | TGI (HOP-18 NSCLC) | TGI (DLD-1 colon) | TGI (SN12K1 renal) | TGI (LXFL 529 NSCLC) | TGI (XF 498 CNS) |
| --- | --- | --- | --- | --- | --- | --- | --- | --- |
| COc1cc2c(cc1OC)-c1c3c(cc4c1[C@@H](C2)N(C)CC4)OCO3 | 31.9 µM | 27.1 µM | 23.3 µM | 52 µM | 49.5 µM | 22.3 µM |  |  |
| NCCCCNCCCNC(=O)c1nc(-c2csc(CCN)n2)sc1Cl | > 100 µM |  |  |  | > 100 µM |  | 45.6 µM | > 100 µM |
| C#CCn1c(=O)c(C#N)c(O)c2cc3ccccc3nc21 |  | > 100 µM | > 100 µM | > 100 µM | > 100 µM | > 100 µM |  | > 100 µM |
